Test results from US8604023B2, “1,4-benzodiazepinone compounds and their use in treating cancer” (The Regents of the University of Michigan, priority 2009, dated 2013).

The molecules below were run on Ramos cells (assay: cytotoxicity in Ramos cells). Details: Homo sapiens.
Type: cell-based
Protocol: The compounds listed in Table 5 were tested for cytotoxicity in Ramos cells. The assay was conducted as described in K. M. Johnson et al. Chemistry & Biology 2005, 12, 485-496.
In the case of `Nc1ccc(C2=NC(Cc3ccc4ccccc4c3)C(=O)Nc3ccc(Cl)cc32)cn1` (stereo not drawn) [Compound V-4], the EC50 is reported as 5 to 25 µM.
Molecule `O=C1Nc2ccc(Cl)cc2C(c2cn[nH]c2)=NC1Cc1ccc2ccccc2c1` (stereo not drawn) [Compound V-39] has an EC50 of at most 5 µM.
Work on `Cc1n[nH]cc1C1=NC(Cc2ccccc2Cl)C(=O)Nc2ccc(Cl)cc21` (stereo not drawn) [Compound V-40] yielded an EC50 of 5 to 25 µM.
Work on `CN1C(=O)C(Cc2ccc3ccccc3c2)N=C(c2ccc(NC(=O)CO)nc2)c2cc(Cl)ccc21` (stereo not drawn) [Compound V-15] yielded an EC50 of 5 to 25 µM.
For `Nc1ncc(C2=NC(Cc3ccccc3Cl)C(=O)Nc3ccc(Cl)cc32)cn1` (stereo not drawn) [Compound V-20], the EC50 was 5 to 25 µM.
In the case of `O=C1Nc2ccc(Cl)cc2C(c2ccc(N3CCOCC3)nc2)=NC1Cc1ccccc1Cl` (stereo not drawn) [Compound V-28], the EC50 is reported as at most 5 µM.
`CN1C(=O)C(Cc2ccc3ccccc3c2)N=C(N2CCC(NC(=O)CN)CC2)c2cc(Cl)ccc21` (stereo not drawn) [Compound V-10] gave an EC50 of at most 5 µM.
In the case of `O=C1Nc2ccc(Cl)cc2C(c2cnc3[nH]c(=O)[nH]c3c2)=NC1CCc1ccccc1Cl` (stereo not drawn) [Compound V-35], the EC50 is reported as 5 to 25 µM.
For `O=C1Nc2ccc(Cl)cc2C(c2ccc(N3CCC(CO)CC3)nc2)=NC1Cc1ccccc1Cl` (stereo not drawn) [Compound V-29], the EC50 was at most 5 µM.
`CN1C(=O)C(Cc2ccc3ccccc3c2)N=C(N2CCC(O)CC2)c2cc(Cl)ccc21` (stereo not drawn) [Compound V-1] showed an EC50 of at least 25 µM.
In the case of `O=C1CCN(C2=NC(Cc3ccc4ccccc4c3)C(=O)Nc3ccc(Cl)cc32)CC1` (stereo not drawn) [Compound V-7], the EC50 is reported as 5 to 25 µM.
For `Nc1ccc(C2=NC(Cc3ccccc3Cl)C(=O)N(C3CC3)c3ccc(Cl)cc32)cn1` (stereo not drawn) [Compound V-36], the EC50 was 5 to 25 µM.
`O=C1Nc2ccc(Cl)cc2C(c2ccc(N3CC[C@@H](O)C3)nc2)=NC1Cc1ccccc1Cl` (stereo partly drawn) [Compound V-32] showed an EC50 of 5 to 25 µM.
In the case of `O=C1Nc2ccc(Cl)cc2C(c2ccncc2)=NC1Cc1ccccc1Cl` (stereo not drawn) [Compound V-19], the EC50 is reported as 5 to 25 µM.
In the case of `CN1C(=O)C(Cc2ccc3ccccc3c2)N=C(c2ccc(N)cn2)c2cc(Cl)ccc21` (stereo not drawn) [Compound V-11], the EC50 is reported as at most 5 µM.
With `CC(=O)NC1CCN(C2=NC(Cc3ccc4ccccc4c3)C(=O)N(C)c3ccc(Cl)cc32)CC1` (stereo not drawn) [Compound V-12] the EC50 was 5 to 25 µM.
`CC(=O)OCC(=O)Nc1ccc(C2=NC(Cc3ccc4ccccc4c3)C(=O)N(C)c3ccc(Cl)cc32)cn1` (stereo not drawn) [Compound V-14] gave an EC50 of at most 5 µM.
`CN1C(=O)C(Cc2ccc3ccccc3c2)N=C(N2CCC3(CC2)OCCO3)c2cc(Cl)ccc21` (stereo not drawn) [Compound V-5] gave an EC50 of at most 5 µM.
`COCCNc1ccc(C2=N[C@@H](Cc3ccccc3Cl)C(=O)Nc3ccc(Cl)cc32)cn1` [Compound V-34] gave an EC50 of 5 to 25 µM.
`O=C1Nc2ccc(Cl)cc2C(c2cn[nH]c2)=NC1Cc1ccccc1Cl` (stereo not drawn) [Compound V-37] gave an EC50 of 5 to 25 µM.
In the case of `Cc1n[nH]c(C)c1C1=NC(Cc2ccccc2Cl)C(=O)Nc2ccc(Cl)cc21` (stereo not drawn) [Compound V-41], the EC50 is reported as 5 to 25 µM.
`CN1C(=O)C(Cc2ccc3ccccc3c2)N=C(N2CCC(NC(=O)c3ccccc3)CC2)c2cc(Cl)ccc21` (stereo not drawn) [Compound V-13] was tested, and the EC50 was at least 25 µM.
Work on `CC(=O)N1CCN(c2ccc(C3=NC(Cc4ccccc4Cl)C(=O)Nc4ccc(Cl)cc43)cn2)CC1` (stereo not drawn) [Compound V-30] yielded an EC50 of at most 5 µM.
With `CCc1ccc(CC2N=C(c3cnc(N)nc3)c3cc(Cl)ccc3NC2=O)cc1CC` (stereo not drawn) [Compound V-21] the EC50 was 5 to 25 µM.
Work on `COc1ccc(C2(O)CCN(C3=NC(Cc4ccc5ccccc5c4)C(=O)Nc4ccc(Cl)cc43)CC2)cc1` (stereo not drawn) [Compound V-8] yielded an EC50 of at most 5 µM.
`CC(=O)Nc1ccc(C2=NC(Cc3ccccc3Cl)C(=O)Nc3ccc(Cl)cc32)cn1` (stereo not drawn) [Compound V-17] was tested, and the EC50 was 5 to 25 µM.
For `CN1C(=O)C(Cc2ccc3ccccc3c2)N=C(c2csc(CO)n2)c2cc(Cl)ccc21` (stereo not drawn) [Compound V-16], the EC50 was at most 5 µM.
Molecule `O=C1Nc2ccc(Cl)cc2C(c2cnc3[nH]c(=O)[nH]c3c2)=NC1Cc1ccccc1Cl` (stereo not drawn) [Compound V-24] has an EC50 of at most 5 µM.
Molecule `Nc1cncc(C2=NC(Cc3ccccc3Cl)C(=O)Nc3ccc(Cl)cc32)c1` (stereo not drawn) [Compound V-22] has an EC50 of at least 25 µM.
`O=C1Nc2ccc(Cl)cc2C(c2ccnc(N3CCNCC3)c2)=NC1Cc1ccccc1Cl` (stereo not drawn) [Compound V-25] was tested, and the EC50 was 5 to 25 µM.
With `O=C1Nc2ccc(Cl)cc2C(c2ccc(N3CCCC3)nc2)=NC1Cc1ccccc1Cl` (stereo not drawn) [Compound V-31] the EC50 was at most 5 µM.
With `Nc1ccc(C2=NC(Cc3ccccc3Cl)C(=O)Nc3ccc(Cl)cc32)cn1` (stereo not drawn) [Compound V-18] the EC50 was 5 to 25 µM.
For `COCCNc1ccc(C2=NC(Cc3ccccc3Cl)C(=O)Nc3ccc(Cl)cc32)cn1` (stereo not drawn) [Compound V-33], the EC50 was 5 to 25 µM.
`CN1C(=O)C(Cc2ccc3ccccc3c2)N=C(c2ccc(N)nc2)c2cc(Cl)ccc21` (stereo not drawn) [Compound V-2] was tested, and the EC50 was 5 to 25 µM.
Work on `CN1C(=O)C(Cc2ccc3ccccc3c2)N=C(c2cnc(N)cn2)c2cc(Cl)ccc21` (stereo not drawn) [Compound V-3] yielded an EC50 of at least 25 µM.
For `CN1C(=O)C(Cc2ccc3ccccc3c2)N=C(N2CCC(N)CC2)c2cc(Cl)ccc21` (stereo not drawn) [Compound V-6], the EC50 was 5 to 25 µM.
`CN1C(=O)C(Cc2ccc3ccccc3c2)N=C(N2CCC(NC(=O)OC(C)(C)C)CC2)c2cc(Cl)ccc21` (stereo not drawn) [Compound V-9] was tested, and the EC50 was at least 25 µM.
`CN1CCN(c2ccc(C3=NC(Cc4ccccc4Cl)C(=O)Nc4ccc(Cl)cc43)cn2)CC1` (stereo not drawn) [Compound V-26] showed an EC50 of at most 5 µM.
With `O=C1Nc2ccc(Cl)cc2C(c2ccc(N3CCC(O)CC3)nc2)=NC1Cc1ccccc1Cl` (stereo not drawn) [Compound V-27] the EC50 was at most 5 µM.
